Test results: patent US12702654B2, “Compositions and methods for treating homocystinuria and other conditions using polyamines” (THE REGENTS OF THE UNIVERSITY OF COLORADO, priority 2020, dated 2026)

Experiments:
HO HCU mice [1] = assay: Tail bleeding time / hypercoagulative phenotype in HO HCU mice; type: in vivo, mouse; conditions: 4 mM solution in drinking water ad libitum, one week
Procedure: In another exemplary method, effect of polyamines (e.g. spermidine and spermine) on the hypercoagulative phenotype induced by HCU was assessed which is a measure of treatment for genetic HCU where rapid coagulation is a side effect of these conditions. In brief, mice containing both the human CBS transgene and no functional copy of the mouse equivalent gene were identified by PCR from the litters of progeny of 11181×MKO^+/− F1 mice backcrossed to MKO^+/− mice. These mice were designated as “human only” (HO) mice and used as a human model of HCU. […] In order to further investigate the possible therapeutic potential of polyamine (e.g. spermidine and spermine) therapy in HCU, WT and HO HCU mice were given either: […]; […] in drinking water given ad libitum; or drinking water (untreated, control). After one week, tail bleeding times were determined for untreated wild type (WT) control B6 mice and HO HCU mice from all treatment groups.

HO HCU mice [2] = assay: Plasma metabolite levels (tHcy, methionine cycle amino acids, SAM, SAH) in HO HCU mice; type: in vivo, mouse; conditions: for plasma Hcy / plasma cysteine levels: HO mice, about 3.0% (w/v) in drinking water ad libitum, normal methionine diet
Procedure: It is noted that WT mice (n=6) include untreated controls. HO HCU mice (N=8, 4 of each sex in each group) were either untreated or treated with about 3.0% (w/v) glycine w/v or about 3.0% (w/v) serine given in drinking water supplied ad libitum for one week. Plasma samples were taken and Hcy and cysteine levels were determined. *** denotes a P value <0.0001.
In accordance with these methods, HO HCU mice (N=8, 4 of each sex in each group) were treated with either about 3.0% glycine w/v or about 3.0% w/v serine given in drinking water supplied ad libitum for one week in the presence and absence of about 3.0% w/v betaine. Plasma samples were taken from the mice at various times and Hcy levels were determined.
Plasma Hcy levels were determined from HO HCU mice (n=8 per group) in the presence and absence of either about 5.0% w/v sodium formate alone or in combination with about 3.0% betaine given in drinking water given ad libitum.
In one exemplary method, mice were given zinc in drinking water. For this example, 8 HO HCU mice were provided drinking water supplemented with zinc (e.g. 0.05% w/v Zinc sulfate) given ad libitum for one week.
(§1) In another exemplary method, the transsulfuration pathway and methionine-folate cycle pathways, as show in the sematic illustrated in FIG. 18A, were assessed. In brief, three experimental groups (n=8 for each group) of male mice consisting of either untreated WT controls or HO HCU mice in the presence or absence of betaine treatment. Betaine was administered by dissolving the compound in drinking water at 30 g/l and was supplied ad libitum to the mice for one week. Treatment water was replenished twice per week.
A comparative reference data set was generated for these mice by examining plasma levels of tHcy, methionine, cysteine, serine, glycine, dimethylglycine, methylglycine (MG, SAM and SAH). In brief, determination of plasma levels of amino acids relevant to the methionine cycle were determined using methods similar to those described in Stabler et al., Blood. 81 (1993) 3404-3413, incorporated in its entirety herein. Determination of hepatic 5-methylTHF was performed by liquid chromatography-tandem mass spectrometry using methods similar to those described in Witham et al., PLoS One. 8 (2013) e77923, incorporated in its entirety herein. The global metabolomic analysis of methionine and folate cycle related metabolites was carried out by Metabolon, Inc. Briefly, sample preparation was performed utilizing the automated MicroLab STAR® system. Sample preparation was performed using a proprietary series of organic and aqueous extractions to remove the protein fraction while allowing maximum recovery of small molecules. The resulting extract was divided into two fractions: one for analysis by liquid chromatography and one for analysis by gas chromatography. Each sample was then frozen and dried under vacuum. The LC/mass spectrometer portion of the platform was based on a Waters ACQUITY UPLC and a Thermo-Finnigan LTQ mass spectrometer, which consisted of an electrospray ionization source and linear ion-trap mass analyzer. Samples were analyzed on a Thermo-Finnigan Trace DSQ fast-scanning single-quadrupole mass spectrometer using electron impact ionization. Identification of known chemical entities was based on comparison to library entries of authenticated standards. Tissue polyamines putrescine, spermidine and spermine and 5-methylthioadenosine (MTA) were determined by liquid chromatography-tandem mass spectrometry using methods similar to those described in Stevens et al., J Chromatogr A 1217 (2010) 3282-3288, incorporated in its entirety herein.

Cbs null mouse = Cbs null mouse model (Hcy, survival, liver injury); type: in vivo; conditions: severe liver damage abolished BHMT-mediated betaine response
Description: In another exemplary method, an acceptable mouse mode of HCU was used to study various effects of exemplary compositions disclosed herein on aberrant Hcy levels. To date, the majority of research on HCU had been performed using a CBS knockout mouse model. These Cbs (−/−) animals experienced pronounced liver injury and typically die within 2-3 weeks of birth.
In another exemplary method, agents were used to verify involvement of BHMT in the homocystinuria treatment process. In these exemplary methods, a Cbs null mouse was used where severe liver damage to the mouse model interferes with standard HCU treatments to reduce Hcy.

DMGDH = assay: Western blotting of hepatic DMGDH protein levels; type: in vivo, mouse; conditions: HO HCU mice, about 5.0% sodium formate alone or with about 3.0% betaine in drinking water, about one week
Description: As shown in FIGS. 12A-12B, a Western blot comparing the level of DMGDH and GAPDH (control) for untreated (HO), treated (e.g. formate agent) and treated with standard treatment combinations (e.g. formate and trimethylglycine (e.g. betaine)) using the HCU mouse model (FIG. 12A); and further illustrating in a histogram plot (FIG. 12B), level of intensity of DMDGH for untreated (HO), treated (e.g. formate agent) and treated with standard treatment combinations (e.g. formate and trimethylglycine (e.g. betaine)) using the HCU mouse model in certain embodiments disclosed herein. Western blotting analysis of hepatic DMGDH protein levels in HO HCU mice in the presence and absence of either about 5.0% sodium formate alone or in combination with about 3.0% betaine given ad libitum in drinking water for about one week. N=9 per group. This figure is representative of three independent experiments.

SAHH = assay: Western blotting of hepatic SAHH expression; type: in vivo, mouse; conditions: HO mice, 30 g/l in drinking water ad libitum, one week
Procedure: (§2) To investigate the effects of these treatments upon the hepatic regulatory changes in enzyme expression induced by HCU, the human transgenic HO mouse model of HCU was used. In brief, experimental groups consisting of 8 HO mice on a C57BL/6J background and 8 C57BL/6J WT littermate control mice bred in house were used. Mice in both groups were male and aged between 3 and 4 months. Except where otherwise stated, all mice were maintained on standard chow. All diets were administered using a paired-feeding design to ensure isocaloric intake between all experimental groups and body weights were measured once per week. There was no significant difference in body weight between mice in any of the experimental groups. Betaine and taurine were in this example, both administered by dissolving these compounds in drinking water at 30 g/l (2% or 3% w/v) and were supplied ad libitum for one week. Treatment water was replenished twice per week.
(§3) Western blotting analysis of SAHH, MTHFR and SHMT2 expression was performed in liver samples from HO mice in the presence and absence of betaine or taurine treatment.

MTHFR = assay: Western blotting of hepatic MTHFR expression; type: in vivo, mouse; conditions: HO mice, 30 g/l in drinking water ad libitum, one week
Procedure: as §2, §3

SHMT2 = assay: Western blotting of hepatic SHMT2 expression; type: in vivo, mouse; conditions: HO mice, 30 g/l in drinking water ad libitum, one week
Procedure: as §2, §3

SHMT1 = assay: Western blotting of hepatic SHMT1 expression; type: in vivo, mouse; conditions: HO mice, 30 g/l in drinking water ad libitum, one week
Procedure: as §2
(§4) These observations are the first to report betaine and taurine acting to regulate expression of these processes. Therefore, this observation supports that taurine alone or in combination with betaine and other treatments for genetic homocystinuria are viable options for avoiding dietary restraints and treating these conditions.

MAT1A = assay: Western blotting of hepatic MAT1A expression; type: in vivo, mouse; conditions: HO HCU mice, 30 g/l in drinking water ad libitum, one week
Procedure: as §2, §4

GNMT = assay: Western blotting of hepatic GNMT expression; type: in vivo, mouse; conditions: HO HCU mice, 30 g/l in drinking water ad libitum, one week
Procedure: as §2, §4

[3] = mouse, in vivo
Procedure: as §1
as §2, with “Betaine and taurine were in this example, both administered by dissolving these compounds in drinking water at 30 g/l (2% or 3% w/v) and were supplied ad libitum for one week. Treatment water was replenished twice per week.” left out

[4] = test system: cysteine oxidation pathways; assay: Cysteine oxidation pathways in HCU (HO model); type: in vivo, mouse; conditions: 30 g/l in drinking water, one week
Procedure: as §2

HO HCU mice [5] = conditions: taurine supplementation; cited from earlier work
HO HCU mice [6] = assay: Plasma metabolite levels (tHcy, methionine cycle amino acids, SAM, SAH) in HO HCU mice; type: in vivo, mouse; conditions: taurine treatment
glutathione = conditions: taurine supplementation; cited from earlier work
human HCU patients = conditions: taurine supplementation; cited from earlier work

SMILES: NCCCCNCCCN [spermidine]
- clotting time (tail bleeding time) compared to untreated HO mice (HO HCU mice [1]): highly significant increase in clotting time

SMILES: NCCCNCCCCNCCCN [spermine]
- clotting time (tail bleeding time) compared to untreated HO mice (HO HCU mice [1]): significantly ameliorated

SMILES: NCC(=O)O [glycine]
- plasma Hcy (HO HCU mice [2]; one week): significantly lowered
- plasma cysteine levels (HO HCU mice [2]; one week): increased
- Hcy in Cbs null mouse model (Cbs null mouse): unable to lower Hcy

SMILES: O=C[O-].[Na+] [sodium formate]
- plasma Hcy levels (HO HCU mice [2]; HO HCU mice, about 5.0% w/v sodium formate alone or with about 3.0% betaine in drinking water ad libitum, normal methionine/protein diet): significantly lowered
- hepatic DMGDH expression levels (DMGDH): restore normal expression levels
- Hcy in Cbs null mouse model (Cbs null mouse): unable to lower Hcy

SMILES: NCCS(=O)(=O)O [taurine]
- HCU-mediated induction of hepatic SAHH expression (SAHH): essentially identical reversal
- HCU-mediated induction of hepatic MTHFR expression (MTHFR): essentially identical reversal
- HCU-induced repression of hepatic SHMT2 (SHMT2): essentially identical reversal
- increase in hepatic SHMT1 expression (SHMT1): 35%
- hepatic MAT1a expression (MAT1A): induced expression
- hepatic GNMT expression (GNMT): induced expression
- tolerability of doses [3]: well tolerated
- dysregulation of cysteine oxidation pathways in HCU [4]: ameliorate the dysregulation of cysteine oxidation pathways
- efficacy of betaine treatment in mice (HO HCU mice [5]): enhances the efficacy of betaine treatment
- effect upon lowering plasma tHcy levels (HO HCU mice [6]): only a mild effect
- HCU-induced disturbances in glutathione metabolism and the gamma-glutamyl cycle (glutathione): effectively normalized
- endothelial dysfunction in human HCU patients (human HCU patients): completely ablate endothelial dysfunction

SMILES: N[C@@H](CO)C(=O)O [serine]
- plasma Hcy (HO HCU mice [2]; one week): significantly lowered
- plasma cysteine levels (HO HCU mice [2]; one week): increased
- Hcy in Cbs null mouse model (Cbs null mouse): unable to lower Hcy

SMILES: O=S(=O)([O-])[O-].[Zn+2] [Zinc sulfate]
- decrease in plasma homocysteine (HO HCU mice [2]; 8 HO HCU mice, 0.05% w/v Zinc sulfate in drinking water ad libitum, one week, p<0.001): 25%
